# Source: US20090239887A1, “Method of resolution and antiviral activity of 1,3-oxathiolane nucleoside enantiomers” (Emory University, priority 1990, published 2009)
# Where two headings read alike, the source gives them in different places.
# Legend:
# HIV-1 (strain LAV) = experiment: microbe, parasite or virus in culture; assay type: cell-based
# Excerpt: It is often desirable to screen a number of racemic mixtures of nucleosides as a preliminary step to determine which warrant further resolution into enantiomerically enriched components and evaluation of antiviral activity. The ability of nucleosides to inhibit HIV can be measured by various experimental techniques. The technique used herein, and described in detail below, measures the inhibition of viral replication in phytohemagglutinin (PHA) stimulated human peripheral blood mononuclear (PBM) cells infected with HIV-1 (strain LAV). The amount of virus produced is determined by measuring the virus-coded reverse transcriptase enzyme. The amount of enzyme produced is proportional to the amount of virus produced.
# A. Three-day-old phytohemagglutinin-stimulated PBM cells (10^6 cells/ml) from hepatitis B and HIV-1 seronegative healthy donors were infected with HIV-1 (strain LAV) at a concentration of about 100 times the 50% tissue culture infectious dose (TICD 50) per ml and cultured in the presence and absence of various concentrations of antiviral compounds.
# B. Approximately one hour after infection, the medium, with the compound to be tested (2 times the final concentration in medium) or without compound, was added to the flasks (5 ml; final volume 10 ml). AZT was used as a positive control.
# C. The cells were exposed to the virus (about 2×10^5 dpm/ml, as determined by reverse transcriptase assay) and then placed in a CO2 incubator. HIV-1 (strain LAV) was obtained from the Center for Disease Control, Atlanta, Ga. The methods used for culturing the PBM cells, harvesting the virus and determining the reverse transcriptase activity were those described by McDougal et al. (J. Immun. Meth. 76, 171-183, 1985) and Spira et al. (J. Clin. Meth. 25, 97-99, 1987), except that fungizone was not included in the medium (see Schinazi, et al., Antimicrob. Agents Chemother. 32, 1784-1787 (1988); Id., 34:1061-1067 (1990)).
# D. On day 6, the cells and supernatant were transferred to a 15 ml tube and centrifuged at about 900 g for 10 minutes. Five ml of supernatant were removed and the virus was concentrated by centrifugation at 40,000 rpm for 30 minutes (Beckman 70.1 Ti rotor). The solubilized virus pellet was processed for determination of the levels of reverse transcriptase. Results are expressed in dpm/ml of sampled supernatant. Virus from smaller volumes of supernatant (1 ml) can also be concentrated by centrifugation prior to solubilization and determination of reverse transcriptase levels.
# [1] = Cytotoxicity in mitogen stimulated uninfected human PBM cells (trypan blue exclusion); assay type: cell-based
# Excerpt: The cells were counted after 6 days using a hemacytometer and the trypan blue exclusion method, as described by Schinazi et al., Antimicrobial Agents and Chemotherapy, 22(3), 499 (1982).
# hepG2 cells = system: hepG2 cells
# Method: (§1) Studies were undertaken using radiolabeled agent in order to follow the intracellular profiles of the parent drug and metabolites detected within the cell. All studies were conducted in duplicate. […] Cells are exposed to the drug for 2, 6, 12 and 24 hours. At these timepoints, the medium is removed and the cells are washed two times with cold Hank's balanced salt solution. Extraction is performed with addition of 0.2 ml of 60% cold methanol/water and stored overnight at −70° C. The following morning, the suspensions are centrifuged and extractions are repeated two times for 0.5 hours at −70° C. The total supernatants (0.6 ml) are lyophilized to dryness. The residues are resuspended in 250 μl of water and aliquots comprising between 50 and 100 μl are analyzed by HPLC. Quantitation of intracellular parent drug and metabolic derivatives are conducted by HPLC. Because of the potential acid lability of some compounds, a buffer system close to physiological pH is used for the separation of the metabolites.
# human PBM cells = settings: 10 μM radiolabeled FTC, 2-24 hours
# Method: as §1
# Vero cells = settings: African green monkey
# CEM cells = settings: human
smiles,measurement,setting,value
"Nc1nc(=O)n(C2CSC(CO)O2)cc1F (racemic) [DLS-022, 2-hydroxymethyl-5-(5-fluorocytosin-1-yl)-1,3-oxathiolane]",DPM/ml,HIV-1 (strain LAV); 0.0001 μM,"73,755 DPM/ml"
same,DPM/ml,HIV-1 (strain LAV); 0.005 μM,"83,005 DPM/ml"
same,DPM/ml,HIV-1 (strain LAV); 0.01 μM,"60,465 DPM/ml"
same,DPM/ml,HIV-1 (strain LAV); 0.05 μM,"34,120 DPM/ml"
same,DPM/ml,HIV-1 (strain LAV); 0.1 μM,"14,160 DPM/ml"
same,DPM/ml,HIV-1 (strain LAV); 0.5 μM,"18,095 DPM/ml"
same,DPM/ml,HIV-1 (strain LAV); 1 μM,"7,555 DPM/ml"
same,DPM/ml,HIV-1 (strain LAV); 5 μM,"7,940 DPM/ml"
same,DPM/ml,HIV-1 (strain LAV); 10 μM,"5,810 DPM/ml"
same,inhibition at 0.0001 µM,"HIV-1 (strain LAV); Human immunodeficiency virus 1, PBMC, 0.0001 μM, read-out: % Inhibition (Corrected)",26.6%
same,EC50,"HIV-1 (strain LAV); Human immunodeficiency virus 1, PBMC, human PBM cells infected with HIV-1 (strain LAV), Table 3, read-out: Antiviral EC50",11 nM
same,EC50,"HIV-1 (strain LAV); Human immunodeficiency virus 1, PBMC, human PBM cells infected with HIV-1, enantiomers isolated by chiral HPLC (Example 3), read-out: EC50",18 nM
same,EC50,"HIV-1 (strain LAV); Human immunodeficiency virus 1, PBMC, human PBM cells infected with HIV-1, enantiomers resolved by method of Example 2 (FIG. 5), read-out: EC50",17 nM
same,inhibition at 0.005 µM,"HIV-1 (strain LAV); Human immunodeficiency virus 1, PBMC, 0.005 μM, read-out: % Inhibition (Corrected)",16.3%
same,inhibition at 0.01 µM,"HIV-1 (strain LAV); Human immunodeficiency virus 1, PBMC, 0.01 μM, read-out: % Inhibition (Corrected)",41.3%
same,inhibition at 0.05 µM,"HIV-1 (strain LAV); Human immunodeficiency virus 1, PBMC, 0.05 μM, read-out: % Inhibition (Corrected)",70.4%
same,inhibition at 0.5 µM,"HIV-1 (strain LAV); Human immunodeficiency virus 1, PBMC, 0.5 μM, read-out: % Inhibition (Corrected)",88.1%
same,inhibition at 1 µM,"HIV-1 (strain LAV); Human immunodeficiency virus 1, PBMC, 1 μM, read-out: % Inhibition (Corrected)",99.7%
same,inhibition at 5 µM,"HIV-1 (strain LAV); Human immunodeficiency virus 1, PBMC, 5 μM, read-out: % Inhibition (Corrected)",99.3%
same,inhibition at 10 µM,"HIV-1 (strain LAV); Human immunodeficiency virus 1, PBMC, 10 μM, read-out: % Inhibition (Corrected)",102%
same,IC50 at 6 days,[1],> 100000 nM
same,metabolism to triphosphate in human liver cells,hepG2 cells; hepG2 cells,metabolize a large percentage
same,uptake by hepG2 cells,hepG2 cells; human liver cells,taken up by hepG2 cells in large amounts
same,uptake in human lymphocytes,human PBM cells,readily taken up
same,toxicity,Vero cells,> 100 µM
same,toxicity,CEM cells,> 100 µM
same,activity against HBV,HBV (hepatitis B virus),effective
